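Each compound was tested at five concentrations against cells in 96-well plates for 48 hours. GI50 marks 50% less growth.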 Active and inactive are the calls of the source. Rule as the data show it: active = GI50 up to about 1.1 µM and inactive = higher.

Some test systems named below: 786-0; A549; DU-145; KM12; MCF7; MDA-MB-231; MDA-MB-435; MOLT-4; Malme-3M; NCI-H226; NCI-H23; NCI/ADR-RES; OVCAR-3; SF-268; SK-MEL-5; SNB-19; SW-620; T47D; UO-31; NCI-H460.
Holding throughout (test): NCI-60 cell line screen, 48 h

For the compound `O=C(c1ccccc1)c1ccc2[nH]c(-c3c(Cl)c(Cl)c(Cl)c(Cl)c3C(=O)N/N=C/c3ccc(Cl)cc3)nc2c1`, the GI50 in the assay with 786-0 was 31.2 µM (inactive); with A549, 33 µM (inactive); in the assay with DU-145, 56.8 µM (inactive); in the assay on KM12, 48.4 µM (inactive); in the assay on MCF7 it was 20.6 µM (inactive); in the assay on MDA-MB-231, 20.7 µM (inactive). For the same compound, the GI50 in the assay with MDA-MB-435 is 32.8 µM (inactive); in the assay with MOLT-4, 18.3 µM (inactive); in the assay on Malme-3M, 37.4 µM (inactive); in the assay with NCI-H226 it was 39.8 µM (inactive); in the assay with NCI-H23 it was 30.1 µM (inactive); in the assay on NCI/ADR-RES it was 47.8 µM (inactive). Further, the GI50 in the assay with OVCAR-3 was 17.5 µM (inactive); in the assay on SF-268 it was 40.7 µM (inactive); in the assay on SK-MEL-5, 17.2 µM (inactive); in the assay on SNB-19, 43 µM (inactive); in the assay on SW-620, 54.3 µM (inactive); in the assay on T47D, 18.3 µM (inactive). In addition, in the assay on UO-31, the GI50 was 42.6 µM (inactive).
Take `O=C(O)c1cc(CC2Cc3cc4c(cc3C2=O)CCC4)cc2c1CCC2` (configuration not stated): the GI50 in the assay with 786-0 is > 100 µM (inactive); with A549, > 100 µM (inactive); in the assay on DU-145, > 100 µM (inactive); in the assay on KM12, 75.2 µM (inactive); in the assay with MCF7 it was > 100 µM (inactive); in the assay with MDA-MB-231, 76.4 µM (inactive). Further, the GI50 in the assay with MDA-MB-435, in the assay with MOLT-4, in the assay with Malme-3M, with NCI-H226, in the assay on NCI-H23 and with NCI-H460 was > 100 µM (inactive) throughout. Besides, the GI50 in the assay with NCI/ADR-RES was > 100 µM (inactive); in the assay with OVCAR-3 it was 94.4 µM (inactive); with SF-268 it was > 100 µM (inactive); in the assay with SNB-19, > 100 µM (inactive); with SW-620 it was > 100 µM (inactive); with T47D, > 100 µM (inactive). Also, the GI50 in the assay on UO-31 is > 100 µM (inactive).
Take `C=C(C(=O)O)[C@@H]1C[C@@H]2O[C@H]1CC(C)=CCC/C(C)=C/CC[C@@]2(C)O`: the GI50 in the assay on 786-0, in the assay with A549, in the assay on DU-145, with KM12, with MCF7 and with MDA-MB-231 was > 100 µM (inactive) throughout. The GI50 with MDA-MB-435, in the assay with MOLT-4, with Malme-3M, in the assay with NCI-H226, with NCI-H460 and in the assay on NCI/ADR-RES was > 100 µM (inactive) throughout. Besides, the GI50 in the assay on OVCAR-3, with SF-268, with SK-MEL-5, with SNB-19, in the assay with SW-620 and in the assay on T47D was > 100 µM (inactive) in each case. Besides, in the assay on UO-31, the GI50 was > 100 µM (inactive).
Regarding `CN(CCc1ccccn1)c1ccc2c(c1)C(=O)c1ccccc1-2`, the GI50 in the assay on 786-0 was 41.3 µM (inactive); in the assay with A549, 14.4 µM (inactive); in the assay on DU-145, > 100 µM (inactive); in the assay on KM12, > 100 µM (inactive); in the assay on MCF7, > 100 µM (inactive); in the assay on MDA-MB-231, > 100 µM (inactive). Also, the GI50 in the assay with MDA-MB-435 was > 100 µM (inactive); with Malme-3M it was > 100 µM (inactive); with NCI-H226, 40.6 µM (inactive); in the assay with NCI-H23 it was > 100 µM (inactive); with NCI-H460, 9.68 µM (inactive); in the assay with NCI/ADR-RES it was > 100 µM (inactive). Moreover, the GI50 with OVCAR-3 was > 100 µM (inactive); with SF-268, > 100 µM (inactive); in the assay on SK-MEL-5, 35.1 µM (inactive); in the assay with SNB-19 it was 88.9 µM (inactive); in the assay with SW-620 it was > 100 µM (inactive); in the assay on T47D, 73.8 µM (inactive). The GI50 in the assay with UO-31 was > 100 µM (inactive).
On to `O=C1CSc2nnc(CCCCCCCCc3nnc4n3NC(=O)CS4)n2N1`, for which the GI50 in the assay on 786-0 is 32.6 µM (inactive); in the assay with A549 it was > 100 µM (inactive); with DU-145, > 100 µM (inactive); in the assay with KM12, > 100 µM (inactive); in the assay with MCF7, 45.6 µM (inactive); in the assay with MDA-MB-231, 69.3 µM (inactive). Further, the GI50 with MDA-MB-435 is > 100 µM (inactive); with MOLT-4, 31.3 µM (inactive); in the assay with Malme-3M, 31.9 µM (inactive); in the assay with NCI-H226 it was > 100 µM (inactive); with NCI-H23 it was > 100 µM (inactive); in the assay on NCI-H460 it was > 100 µM (inactive). Besides, the GI50 was > 100 µM (inactive) in the assay with NCI/ADR-RES; > 100 µM (inactive) in the assay with OVCAR-3; 43.3 µM (inactive) in the assay with SF-268; 32.1 µM (inactive) in the assay with SNB-19; 73.6 µM (inactive) in the assay on SW-620; > 100 µM (inactive) in the assay with T47D. The GI50 in the assay with UO-31 was > 100 µM (inactive).
Turning to `Cc1ccc2c(=O)[nH]sc2c1`, the GI50 was 3.72 µM (inactive) in the assay on 786-0; 19 µM (inactive) with A549; 88.1 µM (inactive) in the assay with DU-145; 17.1 µM (inactive) in the assay with MCF7; 17.3 µM (inactive) in the assay on MDA-MB-231; 14.5 µM (inactive) with MDA-MB-435. Moreover, the GI50 in the assay on MOLT-4 is 3.98 µM (inactive); in the assay with Malme-3M it was 20.4 µM (inactive); with NCI-H226 it was 19.7 µM (inactive); with NCI-H23 it was 17.7 µM (inactive); in the assay on NCI-H460, 53.3 µM (inactive); in the assay with NCI/ADR-RES, 21.6 µM (inactive). For the same compound, the GI50 is 17.8 µM (inactive) in the assay with OVCAR-3; 19.9 µM (inactive) in the assay on SF-268; 12.9 µM (inactive) in the assay on SK-MEL-5; 39.4 µM (inactive) in the assay with SNB-19; 12.6 µM (inactive) in the assay on SW-620; 14.8 µM (inactive) in the assay with T47D.
`Cc1ccc(S(=O)(=O)NC(=O)NCC(=O)NCC(=O)O)cc1`: the GI50 in the assay on 786-0, in the assay with A549, with DU-145, in the assay on KM12, in the assay with MCF7 and in the assay with MDA-MB-231 was > 100 µM (inactive) each time. In addition, the GI50 in the assay on MDA-MB-435, with MOLT-4, in the assay with Malme-3M, in the assay on NCI-H226, in the assay with NCI-H23 and with NCI-H460 was > 100 µM (inactive) in each case. For the same compound, the GI50 with NCI/ADR-RES, in the assay with OVCAR-3, with SF-268, with SK-MEL-5, in the assay with SNB-19 and in the assay on SW-620 was > 100 µM (inactive) throughout. Besides, the GI50 in the assay with T47D and in the assay with UO-31 was > 100 µM (inactive) throughout.
Regarding `CC(C)C(=O)/C=C/S/C=C/C(=O)C(C)C`, the GI50 in the assay with 786-0 was 2.53 µM (inactive); in the assay on A549, 32.3 µM (inactive); in the assay on DU-145, 13.4 µM (inactive); in the assay with KM12 it was 30.3 µM (inactive); in the assay with MCF7, 23 µM (inactive); in the assay with MDA-MB-231, 3.7 µM (inactive). Moreover, the GI50 with MDA-MB-435 is 10.4 µM (inactive); with Malme-3M, 6.7 µM (inactive); in the assay on NCI-H226 it was 7 µM (inactive); in the assay with NCI-H23, 2.59 µM (inactive); in the assay on NCI-H460, 10.8 µM (inactive); with NCI/ADR-RES, 2.83 µM (inactive). The GI50 in the assay with OVCAR-3 was 3.62 µM (inactive); in the assay with SF-268 it was 26.2 µM (inactive); in the assay on SK-MEL-5, 5.83 µM (inactive); in the assay on SNB-19, 28.3 µM (inactive); in the assay with SW-620 it was 3.33 µM (inactive); with T47D, 5.16 µM (inactive). Moreover, the GI50 in the assay with UO-31 is 4.93 µM (inactive).
Regarding `NCCCCNCCCN1CC1`, the GI50 in the assay on 786-0 was 0.359 µM (active); with A549 it was 4.94 µM (inactive); with DU-145, 1.77 µM (inactive); in the assay with KM12, 4.67 µM (inactive); with MCF7 it was 20.6 µM (inactive); with MDA-MB-231 it was 0.624 µM (active). The GI50 in the assay on MDA-MB-435 is 1.15 µM (inactive); in the assay with MOLT-4, 1 µM (active); with Malme-3M, 1.77 µM (inactive); in the assay with NCI-H226, 2.67 µM (inactive); in the assay on NCI-H23, 2.57 µM (inactive); in the assay on NCI-H460 it was 5.5 µM (inactive). Further, the GI50 in the assay with NCI/ADR-RES was 1.16 µM (inactive); with OVCAR-3, 0.619 µM (active); in the assay with SF-268, 0.957 µM (active); in the assay on SK-MEL-5 it was 1.71 µM (inactive); with SNB-19, 1.86 µM (inactive); with SW-620, 4.16 µM (inactive). The values for the GI50 in the assay on T47D and in the assay on UO-31 were 0.354 µM (active) and 1.77 µM (inactive), respectively.
With `CC1=CC(=O)[C@@H](O)[C@]2(C)[C@H]3[C@@]4(O)OC[C@@]35[C@@H](C[C@@H]12)OC(=O)C(OC(=O)CC1=CCCC1)[C@H]5[C@@H](C)[C@H]4O` (some centres not stated), the GI50 with 786-0 is 0.0465 µM (active); in the assay on A549, 0.28 µM (active); in the assay with DU-145, 0.0665 µM (active); in the assay on KM12, 0.0256 µM (active); in the assay with MCF7, < 0.0142 µM (active); with MDA-MB-231, 0.0559 µM (active). For the same compound, the GI50 was 0.0404 µM (active) in the assay with MDA-MB-435; < 0.0145 µM (active) with MOLT-4; 0.0164 µM (active) in the assay with Malme-3M; 0.0167 µM (active) in the assay with NCI-H226; 0.0187 µM (active) in the assay on NCI-H23; 0.023 µM (active) in the assay on NCI-H460. Moreover, the GI50 in the assay with NCI/ADR-RES is 0.136 µM (active); with OVCAR-3 it was 0.0239 µM (active); in the assay on SF-268, 0.0345 µM (active); in the assay with SK-MEL-5, 0.0167 µM (active); with SNB-19 it was 0.0344 µM (active); with SW-620 it was 0.0622 µM (active). In addition, the figures for the GI50 with T47D and in the assay with UO-31 were 0.0771 µM (active) and 0.0668 µM (active), respectively.

Source of the values: ChEMBL document CHEMBL1201862, “PubChem BioAssay data set” (2004).
